# Results as given in patent EP0726261A1, “Herbidical 1,2,4 thiadiazoles” (American Cyanamid Company, priority 1995, dated 1996).
# What was measured:
# Type in all cases: in vivo
# Triticum aestivum [1] = assay: Preemergence herbicidal activity (Example 67); parameters: herbicide rating, TRZAW: scale not given here; details: pre, 800 g/ha; for herbicide rating, TRZAW: rated about 1-3 weeks after treatment
# Protocol: (§1) Herbicidal evaluation of compounds of the invention is conducted on the following plant species:
# (§2) The soil is a prepared horticultural substrate containing 30% peat, 20% volcanic clay, 30% bark residues and 20% polyamide/styromull in a 1:3 mixture with loamy sand. Test solutions are prepared by dissolving the test compound in acetone containing 0.5% of an alkylphenol/ethylene oxide condensate under the trademark, TRITON® X-155, and diluting with water as needed. The test solutions are applied as a spray to the 3-6 week old seedling plants at dose rates corresponding to 800g/ha in a volume equivalent to 400 L/ha. A pneumatic spraying device employing a Teejet nozzle SS 8002E operating at 3 bar is used for a predetermined time. After spraying, the treated plants are placed on greenhouse benches and cared for in a manner commensurate with conventional greenhouse practice. After 10-21 days, the treated plants are evaluated and rated according to the rating system provided below.
# (§3) The soil surface is then sprayed with test solutions as described in the postemergence evaluation hereinabove. After spraying, the treated cups are placed on greenhouse benches and cared for in the manner commensurate with conventional greenhouse practice. About 1-3 weeks after treatment the cups are evaluated and rated according to the rating system provided hereinabove.
# Hordeum vulgare [2] = assay: Preemergence herbicidal activity (Example 67); parameters: herbicide rating, HORVW: scale not given here; details: pre, 800 g/ha; for herbicide rating, HORVW: rated about 1-3 weeks after treatment
# Protocol: as §1, §2, §3
# Alopecurus myosuroides [3] = assay: Preemergence herbicidal activity (Example 67); parameters: herbicide rating, ALOMY: scale not given here; details: pre, 800 g/ha; for herbicide rating, ALOMY: rated about 1-3 weeks after treatment
# Protocol: as §1, §2, §3
# Setaria viridis [4] = assay: Preemergence herbicidal activity (Example 67); parameters: herbicide rating, SETVI: scale not given here; details: pre, 800 g/ha; for herbicide rating, SETVI: rated about 1-3 weeks after treatment
# Protocol: as §1, §2, §3
# Abutilon theophrasti [5] = assay: Preemergence herbicidal activity (Example 67); details: pre, 800 g/ha; for herbicide rating, ABUTH: rated about 1-3 weeks after treatment
# Protocol: as §1, §2, §3
# Amaranthus retroflexus [6] = assay: Preemergence herbicidal activity (Example 67); details: pre, 800 g/ha; for herbicide rating, AMARE: rated about 1-3 weeks after treatment
# Protocol: as §1, §2, §3
# Chenopodium album [7] = assay: Preemergence herbicidal activity (Example 67); details: pre, 800 g/ha; for herbicide rating, CHEAL: rated about 1-3 weeks after treatment
# Protocol: as §1, §2, §3
# Galium aparine [8] = assay: Preemergence herbicidal activity (Example 67); details: pre, 800 g/ha; for herbicide rating, GALAP: rated about 1-3 weeks after treatment
# Protocol: as §1, §2, §3
# Helianthus annuus [9] = assay: Preemergence herbicidal activity (Example 67); details: pre, 800 g/ha; for herbicide rating, HELAN: rated about 1-3 weeks after treatment
# Protocol: as §1, §2, §3
# Ipomoea hederacea [10] = assay: Preemergence herbicidal activity (Example 67); details: pre, 800 g/ha; for herbicide rating, IPOHE: rated about 1-3 weeks after treatment
# Protocol: as §1, §2, §3
# Veronica persica [11] = assay: Preemergence herbicidal activity (Example 67); details: pre, 800 g/ha; for herbicide rating, VERPE: rated about 1-3 weeks after treatment
# Protocol: as §1, §2, §3
# Zea mays [12] = assay: Preemergence herbicidal activity (Example 67); details: pre, 800 g/ha; for herbicide rating, ZEAMX: rated about 1-3 weeks after treatment
# Protocol: as §1, §2, §3
# Abutilon theophrasti [13] = assay: Postemergence herbicidal activity (Example 67); details: pos, 800 g/ha; for herbicide rating, ABUTH: rated after 10-21 days
# Protocol: as §1, §2
# Alopecurus myosuroides [14] = assay: Postemergence herbicidal activity (Example 67); details: pos, 800 g/ha; for herbicide rating, ALOMY: rated after 10-21 days
# Protocol: as §1, §2
# Amaranthus retroflexus [15] = assay: Postemergence herbicidal activity (Example 67); details: pos, 800 g/ha; for herbicide rating, AMARE: rated after 10-21 days
# Protocol: as §1, §2
# Chenopodium album [16] = assay: Postemergence herbicidal activity (Example 67); details: pos, 800 g/ha; for herbicide rating, CHEAL: rated after 10-21 days
# Protocol: as §1, §2
# Galium aparine [17] = assay: Postemergence herbicidal activity (Example 67); details: pos, 800 g/ha; for herbicide rating, GALAP: rated after 10-21 days
# Protocol: as §1, §2
# Helianthus annuus [18] = assay: Postemergence herbicidal activity (Example 67); details: pos, 800 g/ha; for herbicide rating, HELAN: rated after 10-21 days
# Protocol: as §1, §2
# Hordeum vulgare [19] = assay: Postemergence herbicidal activity (Example 67); details: pos, 800 g/ha; for herbicide rating, HORVW: rated after 10-21 days
# Protocol: as §1, §2
# Ipomoea hederacea [20] = assay: Postemergence herbicidal activity (Example 67); details: pos, 800 g/ha; for herbicide rating, IPOHE: rated after 10-21 days
# Protocol: as §1, §2
# Setaria viridis [21] = assay: Postemergence herbicidal activity (Example 67); details: pos, 800 g/ha; for herbicide rating, SETVI: rated after 10-21 days
# Protocol: as §1, §2
# Triticum aestivum [22] = assay: Postemergence herbicidal activity (Example 67); details: pos, 800 g/ha; for herbicide rating, TRZAW: rated after 10-21 days
# Protocol: as §1, §2
# Veronica persica [23] = assay: Postemergence herbicidal activity (Example 67); details: pos, 800 g/ha; for herbicide rating, VERPE: rated after 10-21 days
# Protocol: as §1, §2
# Zea mays [24] = assay: Postemergence herbicidal activity (Example 67); details: pos, 800 g/ha; for herbicide rating, ZEAMX: rated after 10-21 days
# Protocol: as §1, §2
smiles,measurement,setting,value
"C[C@H](NC(=O)c1nsc(-c2ccc(F)cc2)n1)c1ccccc1 [Example 40, (S)-5-(4-Fluorophenyl)-[1,2,4]thiadiazole-3-carboxylic acid, 1-(phenylethyl)amide]",TRZ AW rating,Triticum aestivum [1],0
same,HOR VW rating,Hordeum vulgare [2],0
same,ALO MY rating,Alopecurus myosuroides [3],0
same,SET VI rating,Setaria viridis [4],4 (30-44%)
same,ABU TH rating,Abutilon theophrasti [5],8 (91-99%)
same,AMA RE rating,Amaranthus retroflexus [6],0
same,CHE AL rating,Chenopodium album [7],4 (30-44%)
same,GAL AP rating,Galium aparine [8],0
same,HEL AN rating,Helianthus annuus [9],4 (30-44%)
same,IPO HE rating,Ipomoea hederacea [10],0
same,VER PE rating,Veronica persica [11],5 (45-64%)
same,ZEA MX rating,Zea mays [12],0
same,ABU TH rating,Abutilon theophrasti [13],8 (91-99%)
same,ALO MY rating,Alopecurus myosuroides [14],5 (45-64%)
same,AMA RE rating,Amaranthus retroflexus [15],8 (91-99%)
same,CHE AL rating,Chenopodium album [16],8 (91-99%)
same,GAL AP rating,Galium aparine [17],8 (91-99%)
same,HEL AN rating,Helianthus annuus [18],9 (100% effect)
same,HOR VW rating,Hordeum vulgare [19],6 (65-79%)
same,IPO HE rating,Ipomoea hederacea [20],8 (91-99%)
same,SET VI rating,Setaria viridis [21],9 (100% effect)
same,TRZ AW rating,Triticum aestivum [22],4 (30-44%)
same,VER PE rating,Veronica persica [23],8 (91-99%)
same,ZEA MX rating,Zea mays [24],5 (45-64%)
CC(NC(=O)c1nc(C=Cc2ccccc2)ns1)c1cccs1 (racemic) [Example 29],"herbicide rating, TRZAW",Triticum aestivum [1],0
same,"herbicide rating, HORVW",Hordeum vulgare [2],0
same,"herbicide rating, ALOMY",Alopecurus myosuroides [3],0
same,"herbicide rating, SETVI",Setaria viridis [4],0
same,"herbicide rating, ABUTH",Abutilon theophrasti [5],0
same,"herbicide rating, AMARE",Amaranthus retroflexus [6],0
same,"herbicide rating, CHEAL",Chenopodium album [7],4 (30-44%)
same,"herbicide rating, GALAP",Galium aparine [8],0
same,"herbicide rating, HELAN",Helianthus annuus [9],0
same,"herbicide rating, IPOHE",Ipomoea hederacea [10],0
same,"herbicide rating, VERPE",Veronica persica [11],0
same,"herbicide rating, ZEAMX",Zea mays [12],0
same,"herbicide rating, ABUTH",Abutilon theophrasti [13],1 (1-5%)
same,"herbicide rating, ALOMY",Alopecurus myosuroides [14],2 (6-15%)
same,"herbicide rating, AMARE",Amaranthus retroflexus [15],1 (1-5%)
same,"herbicide rating, CHEAL",Chenopodium album [16],3 (16-29%)
same,"herbicide rating, GALAP",Galium aparine [17],1 (1-5%)
same,"herbicide rating, HELAN",Helianthus annuus [18],4 (30-44%)
same,"herbicide rating, HORVW",Hordeum vulgare [19],0
same,"herbicide rating, IPOHE",Ipomoea hederacea [20],4 (30-44%)
same,"herbicide rating, SETVI",Setaria viridis [21],4 (30-44%)
same,"herbicide rating, TRZAW",Triticum aestivum [22],0
same,"herbicide rating, VERPE",Veronica persica [23],0
same,"herbicide rating, ZEAMX",Zea mays [24],0
"C[C@H](NC(=O)c1nsc(-c2ccccc2)n1)c1ccccc1 [Example 48, (S)-5-(Phenyl)-[1,2,4]thiadiazole-3-carboxylic acid, 1-(phenylethyl)amide]",TRZ AW rating,Triticum aestivum [1],2 (6-15%)
same,HOR VW rating,Hordeum vulgare [2],0
same,ALO MY rating,Alopecurus myosuroides [3],0
same,SET VI rating,Setaria viridis [4],0
same,ABU TH rating,Abutilon theophrasti [5],0
same,AMA RE rating,Amaranthus retroflexus [6],5 (45-64%)
same,CHE AL rating,Chenopodium album [7],0
same,GAL AP rating,Galium aparine [8],0
same,HEL AN rating,Helianthus annuus [9],0
same,IPO HE rating,Ipomoea hederacea [10],0
same,VER PE rating,Veronica persica [11],5 (45-64%)
same,ZEA MX rating,Zea mays [12],0
same,ABU TH rating,Abutilon theophrasti [13],8 (91-99%)
same,ALO MY rating,Alopecurus myosuroides [14],6 (65-79%)
same,AMA RE rating,Amaranthus retroflexus [15],7 (80-90%)
same,CHE AL rating,Chenopodium album [16],7 (80-90%)
same,GAL AP rating,Galium aparine [17],7 (80-90%)
same,HEL AN rating,Helianthus annuus [18],9 (100% effect)
same,HOR VW rating,Hordeum vulgare [19],7 (80-90%)
same,IPO HE rating,Ipomoea hederacea [20],7 (80-90%)
same,SET VI rating,Setaria viridis [21],8 (91-99%)
same,TRZ AW rating,Triticum aestivum [22],5 (45-64%)
same,VER PE rating,Veronica persica [23],8 (91-99%)
same,ZEA MX rating,Zea mays [24],5 (45-64%)
COCCc1nsc(C(=O)N[C@@H](C)c2ccccc2)n1 [Example 34],"herbicide rating, TRZAW",Triticum aestivum [1],0
same,"herbicide rating, HORVW",Hordeum vulgare [2],0
same,"herbicide rating, ALOMY",Alopecurus myosuroides [3],0
same,"herbicide rating, SETVI",Setaria viridis [4],0
same,"herbicide rating, ABUTH",Abutilon theophrasti [5],0
same,"herbicide rating, AMARE",Amaranthus retroflexus [6],0
same,"herbicide rating, CHEAL",Chenopodium album [7],0
same,"herbicide rating, GALAP",Galium aparine [8],0
same,"herbicide rating, HELAN",Helianthus annuus [9],0
same,"herbicide rating, IPOHE",Ipomoea hederacea [10],0
same,"herbicide rating, VERPE",Veronica persica [11],3 (16-29%)
same,"herbicide rating, ZEAMX",Zea mays [12],0
same,"herbicide rating, ABUTH",Abutilon theophrasti [13],1 (1-5%)
same,"herbicide rating, ALOMY",Alopecurus myosuroides [14],3 (16-29%)
same,"herbicide rating, AMARE",Amaranthus retroflexus [15],0
same,"herbicide rating, CHEAL",Chenopodium album [16],2 (6-15%)
same,"herbicide rating, GALAP",Galium aparine [17],1 (1-5%)
same,"herbicide rating, HELAN",Helianthus annuus [18],2 (6-15%)
same,"herbicide rating, HORVW",Hordeum vulgare [19],0
same,"herbicide rating, IPOHE",Ipomoea hederacea [20],4 (30-44%)
same,"herbicide rating, SETVI",Setaria viridis [21],3 (16-29%)
same,"herbicide rating, TRZAW",Triticum aestivum [22],3 (16-29%)
same,"herbicide rating, VERPE",Veronica persica [23],2 (6-15%)
same,"herbicide rating, ZEAMX",Zea mays [24],0
